Experimental data as given in US4359458A, “O-β. -D (and O-α.. -D) Multigalactopyranosyl, xylopyranosyl and glucopyranosyl sulfate salts” (American Cyanamid Company, priority 1981, dated 1982).
Counter-ions that a name gives are not always drawn.

Experiments:
[1] = target: activated human C1 (Homo sapiens, UniProt P09871); assay: Test Code 026 (C1 inhibitor); format: biochemical; details: serial dilution assay, twofold dilutions; higher well number indicates higher activity
Text: (§1) An active inhibitor protects C2 from C1 and C4; (ii) Test Code 035 (C3-C9 inhibitor)--This test determines the ability of the late components of human complement (C3-C9) to lyse EAC 142 in the presence of appropriate dilutions of the test compound. An active inhibitor protects EAC 142 from lysis by human C3-C9; (iii) Test Code 036 (C-Shunt inhibitor)--In this test human erythrocytes rendered fragile are lysed in autologous serum via the shunt pathway activated by cobra venom factor in the presence of appropriate dilutions of the test compound. Inhibition of the shunt pathway results in failure of lysis; (iv) Cap 50 Test--Here, appropriate amounts of the test compound are added to a pool of guinea pig serum in vitro, after which the undiluted serum capillary tube assay of U.S. Pat. No. 3,876,376 is run. The concentration of compound inhibiting 50% is reported; and (v) Guinea Pig Intraperitoneal Test (GPIP)--Guinea pigs weighing about 300 g are dosed intraperitoneally (i.p.) with 200 mg/kg of the test compound dissolved in saline and adjusted to pH 7-8. Approximately 0.4 ml blood samples, taken by orbital sinus puncture 30 minutes and one hour after injections, are collected directly into centrifuge tubes; 5 ml blood samples, taken by decapitation 2 hours after injection are collected directly into beakers. The samples are allowed to clot, centrifuged, and the resultant sera are assayed for complement activity using the capillary complement assay. Percent inhibition is calculated by comparison with simultaneous controls. The results of the GPIP appear in Table I together with results of test code 026, 035, 036 and Cap 50.

[2] = tested on: shunt pathway activated by cobra venom factor; assay: Test Code 036 (C-Shunt inhibitor); format: cell-based, human; details: serial dilution assay, twofold dilutions; higher well number indicates higher activity; N = Negative
Text: as §1

[3] = tested on: late components of human complement (C3-C9); assay: Test Code 035 (C3-C9 inhibitor); format: biochemical; details: serial dilution assay, twofold dilutions; higher well number indicates higher activity; N = Negative
Text: as §1

Compound | Cl 026 Wells [1] | C-Shunt Inhibition 036 Wells [2] | C-Late 035 Wells [3]
O=S(=O)(O)OC[C@H]1O[C@@H](OC[C@H]2O[C@H](O[C@H]3O[C@H](CO[C@@H]4O[C@H](COS(=O)(=O)O)[C@H](OS(=O)(=O)O)[C@H](OS(=O)(=O)O)[C@H]4OS(=O)(=O)O)[C@@H](OS(=O)(=O)O)[C@H](OS(=O)(=O)O)[C@H]3OS(=O)(=O)O)[C@H](OS(=O)(=O)O)[C@@H](OS(=O)(=O)O)[C@@H]2OS(=O)(=O)O)[C@H](OS(=O)(=O)O)[C@@H](OS(=O)(=O)O)[C@H]1OS(=O)(=O)O [drawing 11, Gal 1β,6 glc 1α,1α' glc 1β,6 gal, tetradecakis (H-sulfate), tetradecasalt with trimethylamine] | 9 Wells | 5 Wells | –
O=S(=O)(O)OC[C@H]1O[C@@H](OC[C@H]2O[C@H](O[C@H]3O[C@H](CO[C@@H]4O[C@H](COS(=O)(=O)O)[C@H](OS(=O)(=O)O)[C@H](OS(=O)(=O)O)[C@H]4OS(=O)(=O)O)[C@@H](OS(=O)(=O)O)[C@H](OS(=O)(=O)O)[C@H]3OS(=O)(=O)O)[C@H](OS(=O)(=O)O)[C@@H](OS(=O)(=O)O)[C@@H]2OS(=O)(=O)O)[C@H](OS(=O)(=O)O)[C@@H](OS(=O)(=O)O)[C@H]1OS(=O)(=O)O [drawing 12, Gal 1β,6 glc 1α,1α' glc 1β,6 gal, tetradecakis (H-sulfate), tetradecasodium salt] | 9 Wells | 6 Wells | –
O=S(=O)(O)O[C@@H]1[C@@H](OS(=O)(=O)O)[C@@H](O[C@H]2O[C@H](CO[C@@H]3OC[C@@H](OS(=O)(=O)O)[C@H](OS(=O)(=O)O)[C@H]3OS(=O)(=O)O)[C@@H](OS(=O)(=O)O)[C@H](OS(=O)(=O)O)[C@H]2OS(=O)(=O)O)O[C@H](CO[C@@H]2OC[C@@H](OS(=O)(=O)O)[C@H](OS(=O)(=O)O)[C@H]2OS(=O)(=O)O)[C@H]1OS(=O)(=O)O [drawing 13, Xyl 1β,6 glc 1α,1α' glc 1β,6 xyl, dodecakis (H-sulfate), dodecasalt with trimethylamine] | 10 Wells | 3 Wells | –
O=S(=O)(O)OC[C@H]1O[C@@H](OC[C@H]2O[C@H](O[C@H]3O[C@H](CO[C@@H]4O[C@H](COS(=O)(=O)O)[C@@H](O[C@H]5O[C@H](COS(=O)(=O)O)[C@@H](OS(=O)(=O)O)[C@H](OS(=O)(=O)O)[C@H]5OS(=O)(=O)O)[C@H](OS(=O)(=O)O)[C@H]4OS(=O)(=O)O)[C@@H](OS(=O)(=O)O)[C@H](OS(=O)(=O)O)[C@H]3OS(=O)(=O)O)[C@H](OS(=O)(=O)O)[C@@H](OS(=O)(=O)O)[C@@H]2OS(=O)(=O)O)[C@H](OS(=O)(=O)O)[C@@H](OS(=O)(=O)O)[C@@H]1O[C@H]1O[C@H](COS(=O)(=O)O)[C@@H](OS(=O)(=O)O)[C@H](OS(=O)(=O)O)[C@H]1OS(=O)(=O)O [drawing 15, Glc 1α,4 glc 1β,6 glc 1α,1α' glc 1β,6 glc 1α,4 glc, eicosakis (H-sulfate), eicosasalt with trimethylamine] | 5 Wells | N | N
O=S(=O)(O)OC[C@H]1O[C@@H](OC[C@H]2O[C@H](O[C@H]3O[C@H](CO[C@@H]4O[C@H](COS(=O)(=O)O)[C@@H](O[C@H]5O[C@H](COS(=O)(=O)O)[C@@H](OS(=O)(=O)O)[C@H](OS(=O)(=O)O)[C@H]5OS(=O)(=O)O)[C@H](OS(=O)(=O)O)[C@H]4OS(=O)(=O)O)[C@@H](OS(=O)(=O)O)[C@H](OS(=O)(=O)O)[C@H]3OS(=O)(=O)O)[C@H](OS(=O)(=O)O)[C@@H](OS(=O)(=O)O)[C@@H]2OS(=O)(=O)O)[C@H](OS(=O)(=O)O)[C@@H](OS(=O)(=O)O)[C@@H]1O[C@H]1O[C@H](COS(=O)(=O)O)[C@@H](OS(=O)(=O)O)[C@H](OS(=O)(=O)O)[C@H]1OS(=O)(=O)O [drawing 16, Glc 1α,4 glc 1β,6 glc 1α,1α' glc 1β,6 glc 1α,4 glc, eicosakis (H-sulfate), eicosasodium salt] | 10 Wells | 6 Wells | N
O=S(=O)(O)OC[C@H]1O[C@@H](OC[C@H]2O[C@H](O[C@H]3O[C@H](CO[C@@H]4O[C@H](COS(=O)(=O)O)[C@@H](O[C@H]5O[C@H](COS(=O)(=O)O)[C@@H](O[C@H]6O[C@H](COS(=O)(=O)O)[C@@H](OS(=O)(=O)O)[C@H](OS(=O)(=O)O)[C@H]6OS(=O)(=O)O)[C@H](OS(=O)(=O)O)[C@H]5OS(=O)(=O)O)[C@H](OS(=O)(=O)O)[C@H]4OS(=O)(=O)O)[C@@H](OS(=O)(=O)O)[C@H](OS(=O)(=O)O)[C@H]3OS(=O)(=O)O)[C@H](OS(=O)(=O)O)[C@@H](OS(=O)(=O)O)[C@@H]2OS(=O)(=O)O)[C@H](OS(=O)(=O)O)[C@@H](OS(=O)(=O)O)[C@@H]1O[C@H]1O[C@H](COS(=O)(=O)O)[C@@H](O[C@H]2O[C@H](COS(=O)(=O)O)[C@@H](OS(=O)(=O)O)[C@H](OS(=O)(=O)O)[C@H]2OS(=O)(=O)O)[C@H](OS(=O)(=O)O)[C@H]1OS(=O)(=O)O [drawing 17, Glc 1α,4 glc 1α,4 glc 1β,6 glc 1α,1α' glc 1β,6 glc 1α,4 glc 1α,4 glc, hexacosakis (H-sulfate), hexacosasalt with trimethylamine] | 9 Wells | 6 Wells | 1 Wells
O=S(=O)(O)OC[C@H]1O[C@@H](OC[C@H]2O[C@H](O[C@H]3O[C@H](CO[C@@H]4O[C@H](COS(=O)(=O)O)[C@@H](O[C@H]5O[C@H](COS(=O)(=O)O)[C@@H](O[C@H]6O[C@H](COS(=O)(=O)O)[C@@H](OS(=O)(=O)O)[C@H](OS(=O)(=O)O)[C@H]6OS(=O)(=O)O)[C@H](OS(=O)(=O)O)[C@H]5OS(=O)(=O)O)[C@H](OS(=O)(=O)O)[C@H]4OS(=O)(=O)O)[C@@H](OS(=O)(=O)O)[C@H](OS(=O)(=O)O)[C@H]3OS(=O)(=O)O)[C@H](OS(=O)(=O)O)[C@@H](OS(=O)(=O)O)[C@@H]2OS(=O)(=O)O)[C@H](OS(=O)(=O)O)[C@@H](OS(=O)(=O)O)[C@@H]1O[C@H]1O[C@H](COS(=O)(=O)O)[C@@H](O[C@H]2O[C@H](COS(=O)(=O)O)[C@@H](OS(=O)(=O)O)[C@H](OS(=O)(=O)O)[C@H]2OS(=O)(=O)O)[C@H](OS(=O)(=O)O)[C@H]1OS(=O)(=O)O [drawing 19, Glc 1α,4 glc 1α,4 glc 1β,6 glc 1α,1α' glc 1β,6 glc 1α,4 glc 1α,4 glc, hexacosakis (H-sulfate), hexacosasodium salt] | 9 Wells | 6 Wells | 1 Wells
O=S(=O)(O)OC[C@H]1O[C@@H](OC[C@H]2O[C@H](O[C@H]3O[C@H](CO[C@@H]4O[C@H](COS(=O)(=O)O)[C@@H](O[C@H]5O[C@H](COS(=O)(=O)O)[C@@H](O[C@H]6O[C@H](COS(=O)(=O)O)[C@@H](O[C@H]7O[C@H](COS(=O)(=O)O)[C@@H](O[C@H]8O[C@H](COS(=O)(=O)O)[C@@H](O[C@H]9O[C@H](COS(=O)(=O)O)[C@@H](O[C@H]%10O[C@H](COS(=O)(=O)O)[C@@H](OS(=O)(=O)O)[C@H](OS(=O)(=O)O)[C@H]%10OS(=O)(=O)O)[C@H](OS(=O)(=O)O)[C@H]9OS(=O)(=O)O)[C@H](OS(=O)(=O)O)[C@H]8OS(=O)(=O)O)[C@H](OS(=O)(=O)O)[C@H]7OS(=O)(=O)O)[C@H](OS(=O)(=O)O)[C@H]6OS(=O)(=O)O)[C@H](OS(=O)(=O)O)[C@H]5OS(=O)(=O)O)[C@H](OS(=O)(=O)O)[C@H]4OS(=O)(=O)O)[C@@H](OS(=O)(=O)O)[C@H](OS(=O)(=O)O)[C@H]3OS(=O)(=O)O)[C@H](OS(=O)(=O)O)[C@@H](OS(=O)(=O)O)[C@@H]2OS(=O)(=O)O)[C@H](OS(=O)(=O)O)[C@@H](OS(=O)(=O)O)[C@@H]1O[C@H]1O[C@H](COS(=O)(=O)O)[C@@H](O[C@H]2O[C@H](COS(=O)(=O)O)[C@@H](O[C@H]3O[C@H](COS(=O)(=O)O)[C@@H](O[C@H]4O[C@H](COS(=O)(=O)O)[C@@H](O[C@H]5O[C@H](COS(=O)(=O)O)[C@@H](O[C@H]6O[C@H](COS(=O)(=O)O)[C@@H](OS(=O)(=O)O)[C@H](OS(=O)(=O)O)[C@H]6OS(=O)(=O)O)[C@H](OS(=O)(=O)O)[C@H]5OS(=O)(=O)O)[C@H](OS(=O)(=O)O)[C@H]4OS(=O)(=O)O)[C@H](OS(=O)(=O)O)[C@H]3OS(=O)(=O)O)[C@H](OS(=O)(=O)O)[C@H]2OS(=O)(=O)O)[C@H](OS(=O)(=O)O)[C@H]1OS(=O)(=O)O [drawing 21, Glc 1α,4 (glc 1α,4)5 glc 1β,6 glc 1α,1α'glc 1β,6 glc (glc 1α,4)5 1α,4 glc, pentacontakis (H-sulfate), pentacontasalt with trimethylamine] | 10 Wells | 5 Wells | N
